Drawing on patent publication US20120190701A1, “RENIN INHIBITORS” (Merck Sharp & Dohme Corp., priority 2009, published 2012), this text covers IC50 for five molecules.

Assay [1] deals with T1, Human recombinant renin (Homo sapiens, UniProt P00797).
T1 construct: purchased Proteos
T1 sequence (P00797 67-406): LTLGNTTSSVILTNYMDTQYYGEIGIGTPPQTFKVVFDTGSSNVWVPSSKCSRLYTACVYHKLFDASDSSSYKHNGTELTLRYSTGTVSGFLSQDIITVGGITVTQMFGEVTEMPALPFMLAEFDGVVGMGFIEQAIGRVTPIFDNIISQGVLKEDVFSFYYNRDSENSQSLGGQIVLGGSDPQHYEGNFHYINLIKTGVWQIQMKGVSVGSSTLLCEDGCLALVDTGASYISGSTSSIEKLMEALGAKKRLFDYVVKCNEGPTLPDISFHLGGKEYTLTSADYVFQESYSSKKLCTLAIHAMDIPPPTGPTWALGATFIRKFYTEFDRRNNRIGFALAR
The assay is described as follows: Inhibition of human recombinant renin (buffer assay, quenched fluorescent peptide). The class given is biochemical. The following applies: buffer: 50 mM MOPS pH 7.4, 100 mM NaCl, 0.002% Tween 20; 37° C., 3 hours. The protocol: Background fluorescence at t=0 is subtracted from the measurement at t=3 hours. Inhibitory activity of the compounds is expressed as IC50.

The target in assay [2] is T2, recombinant renin in human plasma (Homo sapiens, UniProt P00797).
T2 construct: purchased Proteos
T2 sequence (P00797 67-406): T1 sequence (P00797 67-406)
The assay is described as follows: Inhibition of renin in human plasma (quenched fluorescent peptide). The following applies: human EDTA plasma with 1 nM recombinant renin added; 37° C., 1 hour. The class given is biochemical. The protocol:
Human EDTA-collected plasma is rapidly thawed in warm water and centrifuged at 2900 g for 15 minutes at 4° C. The supernatant is collected and recombinant renin (Proteos) is added at a final concentration of 1 nM. […] The plate is incubated at 37° C. for 1 hour. […] Background fluorescence at t=0 is subtracted from the measurement at t=1 hour. Inhibitory activity of the compounds is expressed as IC50.

In the case of `COCCCc1cc(CN(C(=O)[C@H]2CNCC[C@@]23OCc2cc(F)c(F)cc23)C2CC2)c2ccccc2n1` (relative stereo) [Example 48, (cis-1,3′)-N-Cyclopropyl-5,6-difluoro-N-{[2-(3-methoxypropyl)-4-quinolinyl]methyl}-3H-spiro[2-benzofuran-1,4′-piperidine]-3′-carboxamide], the IC50 amounted to 0.7 nM in assay [1] and 2.3 nM in assay [2].
For the molecule `O=C([C@H]1CNCC[C@@]12OCc1cc(F)c(F)cc12)N(Cc1c[nH]c2cccc(F)c12)C1CC1` (relative stereo) [Example 56, (cis-1,3′)-N-cyclopropyl-5,6-difluoro-N-[(4-fluoro-1H-indol-3-yl)methyl]-3H-spiro[2-benzofuran-1,4′-piperidine]-3′-carboxamide], the figures for the IC50 in assay [1] and in assay [2] were 1.2 nM and 4.5 nM, respectively.
In the same order, the values of `COCCCc1cc(CN(C(=O)[C@H]2CNCC[C@@]23OCc2cc(F)c(F)cc23)C2CC2)c2ncccc2c1` (relative stereo) [Example 54, (cis-1,3′)-N-Cyclopropyl-5,6-difluoro-N-{[6-(3-methoxypropyl)-8-quinolinyl]methyl}-3H-spiro[2-benzofuran-1,4′-piperidine]-3′-carboxamide] are 0.1 nM and 3.5 nM.
Regarding `COCCc1cc(C)c(C)c(CN(C(=O)[C@H]2CNCC[C@@]23OCc2cc(F)c(F)cc23)C2CC2)c1` (relative stereo) [Example 45, (cis-1,3′)-N-Cyclopropyl-5,6-difluoro-N-[5-(2-methoxyethyl)-2,3-dimethylbenzyl]-3H-spiro[2-benzofuran-1,4′-piperidine]-3′-carboxamide], the IC50 in assay [1] was 0.1 nM; in assay [2] it was 0.6 nM.
`COCCCc1cc(CCCOC)c(Cl)c(CN(C(=O)[C@H]2CNCC[C@@]23OCc2cc(F)c(F)cc23)C2CC2)c1` (relative stereo) [Example 53]: the IC50 in assay [1] amounted to 0.1 nM; in assay [2] it was 1.3 nM.
